Laboratory results reported in ChEMBL document CHEMBL4616724, “Topoisomerase Inhibitors Addressing Fluoroquinolone Resistance in Gram-Negative Bacteria” (J Med Chem, 2020).
Converted amounts (≈) assume the structure as drawn.

Assays:
[1] = Photoirradiation factor, ratio of IC50 for BALB/c mouse 3T3 cells under dark condition to IC50 for BALB/c mouse 3T3 cells under 5 J/cm2 sunlight irradiation by neutral red uptake assay; format: ADME, cell-based, NIH3T3; conditions: BALB/c 3T3 cells, read-out: Ratio IC50
Escherichia coli [2] = experiment: Antibacterial activity against wild type Escherichia coli ATCC 25922 at pH 7.4 by CLSI-based broth microdilution assay; format: functional
Pseudomonas aeruginosa [3] = experiment: Antibacterial activity against wild type Pseudomonas aeruginosa PAO1 K767 by CLSI-based broth microdilution assay; format: functional
Klebsiella pneumoniae = experiment: Antibacterial activity against wild type Klebsiella pneumoniae ATCC 43816 by CLSI-based broth microdilution assay; format: functional
Pseudomonas aeruginosa [4] = experiment: Antibacterial activity against Pseudomonas aeruginosa K1542/K767 harboring MexB/MexXY deletion mutant by CLSI-based broth microdilution assay; format: functional
Pseudomonas aeruginosa [5] = experiment: Antibacterial activity against Pseudomonas aeruginosa NB52023 harboring gyrA T83I mutant/ParC S87L mutant by CLSI-based broth microdilution assay; format: functional
Escherichia coli [6] = experiment: Antibacterial activity against Escherichia coli BW25113/JW0451-2 harboring AcrB deletion mutant by CLSI-based broth microdilution assay; format: functional
NIH3T3 = experiment: Phototoxicity against BALB/c mouse 3T3 cells assessed as reduction in cell viability preincubated for 1 hr followed by 5 J/cm2 UVA sunlight irradiation for 50 mins and subsequent replacement of medium and measured after 24 hrs by neutral red uptake assay; format: cell-based; conditions: NIH3T3, light or radiation study
Escherichia coli [7] = experiment: Antibacterial activity against wild type Escherichia coli ATCC 25922 at pH 5.8 by CLSI-based broth microdilution assay; format: functional
Escherichia coli [8] = experiment: Ratio of MIC for antibacterial activity against wild type Escherichia coli ATCC 25922 at pH 5.8 to MIC for antibacterial activity against wild type Escherichia coli ATCC 25922 at pH 7.4; format: functional
[9] = Dissociation constant, pKa of the compound by UV metric method; format: physicochemical
DNA gyrase = DNA gyrase (Escherichia coli, UniProt P0AES4+P0AES6); experiment: Inhibition of recombinant full-length C-terminal His6-tagged Escherichia coli DNA gyrase AB supercoiling activity using relaxed DNA as substrate preincubated for 30 mins followed by substrate addition and measured after 2 hrs in presence of ATP by size exclusion HPLC analysis; format: protein-complex assay
[10] = Inhibition of recombinant full-length C-terminal His6-tagged Escherichia coli DNA topoisomerase 4 subunit ParC/ParE using kinetoplast DNA as substrate preincubated for 30 mins followed by substrate addition and measured after 1 hr in presence of ATP by size exclusion chromatography
[11] = Selectivity ratio of MIC for Pseudomonas aeruginosa NB52023 harboring gyrA T83I mutant/ParC S87L mutant to MIC for Pseudomonas aeruginosa K1542/K767 harboring MexB/MexXY deletion mutant; format: functional
[12] = Dark toxicity in BALB/c mouse 3T3 cells assessed as reduction in cell viability incubated for 1 hr prior to 50 mins incubation under dark condition followed by replacement of medium and measured after 24 hrs by neutral red uptake assay; format: cell-based, NIH3T3; conditions: BALB/c 3T3 cells
[13] = Selectivity ratio of MIC for wild type Escherichia coli ATCC 25922 to MIC for Escherichia coli BW25113/JW0451-2 harboring AcrB deletion mutant; format: functional

| Structure (SMILES) | selectivity ratio [1] | MIC (Escherichia coli [2]) [µg/mL] | MIC (Pseudomonas aeruginosa [3]) [µg/mL] | MIC (Klebsiella pneumoniae) [µg/mL] | MIC (Pseudomonas aeruginosa [4]) [µg/mL] | MIC (Pseudomonas aeruginosa [5]) [µg/mL] | MIC (Escherichia coli [6]) [µg/mL] | IC50 (NIH3T3) [µM] | MIC (Escherichia coli [7]) [µg/mL] | Ratio (Escherichia coli [8]) | pKa [9] | IC50 (DNA gyrase) [µM] | IC50 [10] [µM] | Selectivity ratio [11] | IC50 at 110 min [12] [µM] | Selectivity ratio [13] |
| --- | --- | --- | --- | --- | --- | --- | --- | --- | --- | --- | --- | --- | --- | --- | --- | --- |
| C[C@@H]1CN(c2c(F)c(N)c3c(=O)c(C(=O)O)cn(C4CC4)c3c2F)C[C@H](C)N1 [SPARFLOXACIN] | > 82 |  |  |  |  |  |  |  |  |  |  |  |  |  |  |  |
| Cc1c(N2CC[C@H](N)C2)c(F)cc2c(CN)cc(=O)n(C3CC3)c12 | 1.7 | 2 (≈ 6.05 µM) | 4 (≈ 12.1 µM) | 2 (≈ 6.05 µM) | 0.5 (≈ 1.51 µM) | 2 (≈ 6.05 µM) | 0.5 (≈ 1.51 µM) | 288 | > 32 | >=32 |  |  |  |  |  |  |
| Cc1c(N2CC[C@@H]([C@H](C)N)C2)c(F)cc2c(C(=O)O)cc(=O)n(C3CC3)c12 |  | > 32 | > 32 | > 32 | > 32 | > 32 |  |  |  |  | 2.2 |  |  |  |  |  |
| Cc1c(N2CC3CC3(N)C2)c(F)cc2c(CN)c(O)c(=O)n(C3CC3)c12 (stereo not drawn) |  | 0.5 (≈ 1.4 µM) | 2 (≈ 5.58 µM) | 1 (≈ 2.79 µM) | 0.5 (≈ 1.4 µM) | 2 (≈ 5.58 µM) | 0.25 (≈ 0.698 µM) |  |  |  |  |  |  |  |  |  |
| Cc1c(N2CC[C@@H]([C@H](C)N)C2)c(F)cc2c(-c3n[nH]c(=O)o3)cc(=O)n(C3CC3)c12 |  | 8 (≈ 19.3 µM) | > 32 | 32 (≈ 77.4 µM) | 8 (≈ 19.3 µM) | 32 (≈ 77.4 µM) |  |  |  |  |  |  |  |  |  |  |
| Cc1c(N2CC[C@@H]([C@H](C)N)C2)c(F)cc2cc(C(=O)O)c(=O)n(C3CC3)c12 |  | 4 (≈ 10.7 µM) |  | 8 (≈ 21.4 µM) |  | 64 (≈ 171 µM) |  |  |  |  |  | 2.91 | 4.8 | 8 |  |  |
| Cc1c(N2CC3CC3(CN)C2)c(F)cc2c(CN)cc(=O)n(C3CC3)c12 (racemic) |  | 8 (≈ 22.4 µM) | 32 (≈ 89.8 µM) | 32 (≈ 89.8 µM) | 4 (≈ 11.2 µM) | 16 (≈ 44.9 µM) | 1 (≈ 2.81 µM) |  |  |  |  |  |  |  |  |  |
| Cc1c(N2C[C@H]3CC[C@@]3(N)C2)c(F)cc2c(CN)cc(=O)n(C3CC3)c12 (racemic) |  | 2 (≈ 5.61 µM) | 8 (≈ 22.4 µM) | 4 (≈ 11.2 µM) | 2 (≈ 5.61 µM) | 4 (≈ 11.2 µM) | 0.25 (≈ 0.701 µM) |  |  |  |  |  |  |  |  |  |
| N#Cc1c(N2CC3CC3(N)C2)c(F)cc2c(CN)cc(=O)n(C3CC3)c12 (stereo not drawn) |  | 1 (≈ 2.83 µM) | 16 (≈ 45.3 µM) | 2 (≈ 5.66 µM) | 2 (≈ 5.66 µM) | 4 (≈ 11.3 µM) | 0.125 (≈ 0.354 µM) |  |  |  |  |  |  |  |  |  |
| Cc1c(CN)c2cc(F)c(N3CC4CC4(N)C3)c(C)c2n(C2CC2)c1=O (stereo not drawn) |  | 0.25 (≈ 0.701 µM) | 8 (≈ 22.4 µM) | 1 (≈ 2.81 µM) | 1 (≈ 2.81 µM) | 2 (≈ 5.61 µM) | 0.125 (≈ 0.351 µM) |  |  |  |  |  |  |  |  |  |
| Cc1c(N2CCCC2)c(F)cc2c(CN)cc(=O)n(C3CC3)c12 |  | 1 (≈ 3.17 µM) | 32 (≈ 101 µM) | 2 (≈ 6.34 µM) | 4 (≈ 12.7 µM) | 8 (≈ 25.4 µM) | 0.06 (≈ 0.19 µM) |  |  |  |  |  |  |  |  |  |
| Cc1c(N2CC[C@@H](N)C2)c(F)cc2c(CN)cc(=O)n(C3CC3)c12 |  | 16 (≈ 48.4 µM) | > 32 | 8 (≈ 24.2 µM) | 8 (≈ 24.2 µM) | 32 (≈ 96.9 µM) | 2 (≈ 6.05 µM) |  |  |  |  |  |  |  |  |  |
| COc1cc(=O)n(C2CC2)c2c(C)c(N3CC[C@@H]([C@H](C)N)C3)c(F)cc12 |  | 32 (≈ 89 µM) | 32 (≈ 89 µM) | 16 (≈ 44.5 µM) | 8 (≈ 22.3 µM) | 16 (≈ 44.5 µM) | 1 (≈ 2.78 µM) |  |  |  |  |  |  |  |  |  |
| Cc1c(N2CC[C@@H]([C@H](C)N)C2)c(F)cc2c(O)cc(=O)n(C3CC3)c12 |  | > 32 | > 32 | > 32 | > 32 | > 32 | 16 (≈ 46.3 µM) |  |  |  | 5.7 |  |  |  |  |  |
| Cc1c(N2CC3CC3(N)C2)c(F)cc2c(CN)cc(=O)n(C3CC3)c12 (stereo not drawn) | 104 | 0.25 (≈ 0.73 µM) | 4 (≈ 11.7 µM) | 0.5 (≈ 1.46 µM) | 0.5 (≈ 1.46 µM) | 1 (≈ 2.92 µM) | 0.06 (≈ 0.175 µM) | 3.03 | 32 (≈ 93.5 µM) | 128 |  |  |  |  | 316 | 4 |
| Cc1c(N2CC[C@H](O)C2)c(F)cc2c(CN)cc(=O)n(C3CC3)c12 |  | 0.5 (≈ 1.51 µM) | 4 (≈ 12.1 µM) | 1 (≈ 3.02 µM) | 0.25 (≈ 0.754 µM) | 1 (≈ 3.02 µM) | ≤ 0.03 |  | 8 (≈ 24.1 µM) | 16 |  |  |  |  |  |  |
